Measurements: patent US20260008758A1, “LINEAR DIPEPTIDYL PEPTIDASE 1 INHIBITORS AND USES THEREOF” (Insmed Incorporated, priority 2024, published 2026)

These compounds were tested against human DPP1 enzyme (Homo sapiens (Human), UniProt P53634) (assay: Human DPP1 enzyme IC50 assay). Conditions: recombinant human DPP1, H-Gly-Arg-AMC substrate 400 μM.
Format: biochemical
Protocol: Test articles were applied to activated human DPP1 enzyme in Assay Buffer (25 mM MES pH 6.0, 50 mM NaCl, 5 mM DTT) in a total reaction volume of 125 μL. 25 μL of compound in Assay Buffer plus 5% DMSO was first added to 50 μL of activated human DPP1 enzyme at a concentration of 1 ng/μL and allowed to pre-incubate for 10 minutes at 37° C. after which 50 μL of 1000 μM H-Gly-Arg-AMC substrate (Bachem; St. Torrance, CA) was added, giving final substrate concentration of 400 μM and a final DMSO concentration of 1%. Substrate cleavage was measured for 90 minutes at 37° C., with fluorescence at Excitation/Emission 350/450 nm measured every 5 minutes. DPP1 concentration was interpolated based on its activity relative to a standard curve of activated human recombinant DPP1 enzyme. IC50 values for each compound were calculated via the XLFit (IDBS Version 5.3.1.3) Add-On to Microsoft Excel using the four parameter fit equation y={A+[(B-A)]/[1+((C/x)^D)]}, which appears as equation number 205 (4 Parameter Logistic Model or Sigmoidal Dose-Response Model) in XLFit. Default constraints were used for each Parameter.

Chain of human DPP1 enzyme (P53634 25-134): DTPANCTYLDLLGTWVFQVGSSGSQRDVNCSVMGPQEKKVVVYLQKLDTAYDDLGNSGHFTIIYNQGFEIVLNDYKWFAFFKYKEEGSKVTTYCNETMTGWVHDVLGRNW
Chain of human DPP1 enzyme (P53634 231-394): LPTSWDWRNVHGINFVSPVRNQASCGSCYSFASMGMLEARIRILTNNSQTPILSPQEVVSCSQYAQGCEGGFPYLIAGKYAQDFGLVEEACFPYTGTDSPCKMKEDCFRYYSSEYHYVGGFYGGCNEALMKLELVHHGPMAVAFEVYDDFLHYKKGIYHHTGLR
Chain of human DPP1 enzyme (P53634 395-463): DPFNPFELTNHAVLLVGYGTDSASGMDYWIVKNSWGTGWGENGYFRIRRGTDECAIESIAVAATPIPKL

Compound	IC50 [nM]
C[C@H](N)[C@H](O)C(=O)N[C@H](C#N)Cc1ccc(-c2ccc3oc(=O)n(C)c3c2)cc1 [Compound 102C]	≥ 15
CN(C)C[C@@H](O)C(=O)N[C@H](C#N)Cc1ccc(-c2ccc3oc(=O)n(C)c3c2)cc1 [Compound 104, (2R)—N-[(1S)-1-cyano-2-[4-(3-methyl-2-oxo-1,3-benzoxazol-5-yl)phenyl]ethyl]-3-(dimethylamino)-2-hydroxypropanamide]	≥ 15
CO[C@H](CN(C)C)C(=O)N[C@H](C#N)Cc1ccc(-c2ccc3oc(=O)n(C)c3c2)cc1 [Compound 112, (2R)—N-[(1S)-1-cyano-2-[4-(3-methyl-2-oxo-1,3-benzoxazol-5-yl)phenyl]ethyl]-3-(dimethylamino)-2-methoxypropanamide]	≥ 15
CN(C)C[C@@H](O)CC(=O)N[C@H](C#N)Cc1ccc(-c2ccc3oc(=O)n(C)c3c2)cc1 [Compound 113, (3S)—N-[(1S)-1-cyano-2-[4-(3-methyl-2-oxo-1,3-benzoxazol-5-yl)phenyl]ethyl]-4-(dimethylamino)-3-hydroxybutanamide]	≥ 15
CCN(CC)C[C@H](O)C(=O)N[C@H](C#N)Cc1ccc(-c2ccc3oc(=O)n(C)c3c2)cc1 [Compound 115, (2S)—N-[(1S)-1-cyano-2-[4-(3-methyl-2-oxo-1,3-benzoxazol-5-yl)phenyl]ethyl]-3-(diethylamino)-2-hydroxypropanamide]	≥ 15
Cn1c(=O)oc2ccc(-c3ccc(C[C@@H](C#N)NC(=O)[C@@H](O)CN4CCOCC4)cc3)cc21 [Compound 121, (2S)—N-[(1S)-1-cyano-2-[4-(3-methyl-2-oxo-1,3-benzoxazol-5-yl)phenyl]ethyl]-2-hydroxy-3-(morpholin-4-yl)propanamide]	≥ 15
CCN(C)C[C@H](OC)C(=O)N[C@H](C#N)Cc1ccc(-c2ccc3oc(=O)n(C)c3c2)cc1 [Compound 130, (2S)—N-[(1S)-1-cyano-2-[4-(3-methyl-2-oxo-1,3-benzoxazol-5-yl)phenyl]ethyl]-3-[ethyl(methyl)amino]-2-methoxypropanamide]	≥ 15
CC(O)CNCC(=O)N[C@H](C#N)Cc1ccc(-c2ccc3oc(=O)n(C)c3c2)cc1 (stereo partly drawn) [Compound 174, N—((S)-1-cyano-2-(4-(3-methyl-2-oxo-2,3-dihydrobenzo[d]oxazol-5-yl)phenyl)ethyl)-2-((2-hydroxypropyl)amino)acetamide]	≥ 15
Cn1c(=O)oc2ccc(-c3ccc(C[C@@H](C#N)NC(=O)C(CN)Cc4cccnc4)cc3)cc21 (stereo partly drawn) [Compound 191, 3-Amino-N-[(1S)-1-cyano-2-[4-(3-methyl-2-oxo-1,3-benzoxazol-5-yl)phenyl]ethyl]-2-(pyridin-3-ylmethyl) propanamide]	≥ 15
Cc1ccccc1C[C@H](CN)C(=O)N[C@H](C#N)Cc1ccc(-c2ccc3oc(=O)n(C)c3c2)cc1 [Compound 193, (2R)-3-amino-N-[(1S)-1-cyano-2-[4-(3-methyl-2-oxo-1,3-benzoxazol-5-yl)phenyl]ethyl]-2-[(2-methylphenyl)methyl]propanamide]	≥ 15
Cn1c(=O)oc2ccc(-c3ccc(C[C@@H](C#N)NC(=O)C(C)(CN)Cc4ccccc4F)cc3)cc21 (stereo partly drawn) [Compound 196, 3-Amino-N-[(1S)-1-cyano-2-[4-(3-methyl-2-oxo-1,3-benzoxazol-5-yl)phenyl]ethyl]-2-[(2-fluorophenyl)methyl]-2-methylpropanamide]	≥ 15
Cc1ccccc1[C@@H](N)CC(=O)N[C@H](C#N)Cc1ccc(-c2ccc3oc(=O)n(C)c3c2)cc1 [Compound 198, (3S)-3-amino-N-[(1S)-1-cyano-2-[4-(3-methyl-2-oxo-1,3-benzoxazol-5-yl)phenyl]ethyl]-3-(2-methylphenyl)propanamide]	≥ 15
Cn1c(=O)oc2ccc(-c3ccc(C[C@@H](C#N)NC(=O)C[C@@H](N)C4CCCO4)cc3)cc21 (stereo partly drawn) [Compound 226, (3R)-3-amino-N—((S)-1-cyano-2-(4-(3-methyl-2-oxo-2,3-dihydrobenzo[d]oxazol-5-yl)phenyl)ethyl)-3-(tetrahydrofuran-2-yl)propanamide]	≥ 15
Cn1c(=O)oc2ccc(-c3ccc(C[C@@H](C#N)NC(=O)CC(N)Cc4cocn4)cc3)cc21 (stereo partly drawn) [Compound 230, 3-amino-N-[(1S)-1-cyano-2-[4-(3-methyl-2-oxo-1,3-benzoxazol-5-yl)phenyl]ethyl]-4-(1,3-oxazol-4-yl)butanamide]	≥ 15

More lines, now with the values ahead:

IC50 [nM]	Compound
≥ 15	C[C@@H](N)[C@H](O)C(=O)N[C@H](C#N)Cc1ccc(-c2ccc3oc(=O)n(C)c3c2)cc1 [Compound 102A]
≥ 15	CCN(CC)C[C@@H](O)C(=O)N[C@H](C#N)Cc1ccc(-c2ccc3oc(=O)n(C)c3c2)cc1 [Compound 116, (2R)—N-[(1S)-1-cyano-2-[4-(3-methyl-2-oxo-1,3-benzoxazol-5-yl)phenyl]ethyl]-3-(diethylamino)-2-hydroxypropanamide]
≥ 15	CN(C)C[C@H](O)CC(=O)N[C@H](C#N)Cc1ccc(-c2ccc3oc(=O)n(C)c3c2)cc1 [Compound 118, (3R)—N-[(1S)-1-cyano-2-[4-(3-methyl-2-oxo-1,3-benzoxazol-5-yl)phenyl]ethyl]-4-(dimethylamino)-3-hydroxybutanamide]
≥ 15	Cn1c(=O)oc2ccc(-c3ccc(C[C@@H](C#N)NC(=O)[C@@H](O)CN4CCCC4)cc3)cc21 [Compound 120, (2S)—N-[(1S)-1-cyano-2-[4-(3-methyl-2-oxo-1,3-benzoxazol-5-yl)phenyl]ethyl]-2-hydroxy-3-(pyrrolidin-1-yl)propanamide]
≥ 15	CC(CO)CC(N)C(=O)N[C@H](C#N)Cc1ccc(-c2ccc3oc(=O)n(C)c3c2)cc1 (stereo partly drawn) [Compound 168, 2-amino-N-[(1S)-1-cyano-2-[4-(3-methyl-2-oxo-1,3-benzoxazol-5-yl)phenyl]ethyl]-5-hydroxy-4-methylpentanamide]
≥ 15	C[C@@H](O)[C@@](C)(N)C(=O)N[C@H](C#N)Cc1ccc(-c2ccc3oc(=O)n(C)c3c2)cc1 [Compound 171C, (2R,3R)-2-amino-N-[(1S)-1-cyano-2-[4-(3-methyl-2-oxo-1,3-benzoxazol-5-yl)phenyl]ethyl]-3-hydroxy-2-methylbutanamide]
≥ 15	Cn1c(=O)oc2ccc(-c3ccc(C[C@@H](C#N)NC(=O)CC(N)c4ccccc4)cc3)cc21 (stereo partly drawn) [Compound 189, 3-amino-N-[(1S)-1-cyano-2-[4-(3-methyl-2-oxo-2,3-dihydro-1,3-benzoxazol-5-yl)phenyl]ethyl]-3-phenylpropanamide]
≥ 15	Cc1ccccc1CC(CN)C(=O)N[C@H](C#N)Cc1ccc(-c2ccc3oc(=O)n(C)c3c2)cc1 (stereo partly shown) [Compound 192]
≥ 15	Cc1ccccc1C[C@@H](CN)C(=O)N[C@H](C#N)Cc1ccc(-c2ccc3oc(=O)n(C)c3c2)cc1 [Compound 194, (2S)-3-amino-N-[(1S)-1-cyano-2-[4-(3-methyl-2-oxo-1,3-benzoxazol-5-yl)phenyl]ethyl]-2-[(2-methylphenyl)methyl]propanamide]
≥ 15	Cn1c(=O)oc2ccc(-c3ccc(C[C@@H](C#N)NC(=O)C(C)(CN)Cc4c(F)cccc4Cl)cc3)cc21 (stereo partly drawn) [Compound 197, 3-amino-2-[(2-chloro-6-fluorophenyl)methyl]-N-[(1S)-1-cyano-2-[4-(3-methyl-2-oxo-1,3-benzoxazol-5-yl)phenyl]ethyl]-2-methylpropanamide]
≥ 15	Cn1c(=O)oc2ccc(-c3ccc(C[C@@H](C#N)NC(=O)C(C)(N)c4ccc(O)cc4)cc3)cc21 (stereo partly drawn) [Compound 200, 2-amino-N-[(1S)-1-cyano-2-[4-(3-methyl-2-oxo-1,3-benzoxazol-5-yl)phenyl]ethyl]-2-(4-hydroxyphenyl)propanamide]
≥ 15	Cn1c(=O)oc2ccc(-c3ccc(C[C@@H](C#N)NC(=O)C(C)(N)c4cccnc4)cc3)cc21 (stereo partly drawn) [Compound 216, 2-amino-N-[(1S)-1-cyano-2-[4-(3-methyl-2-oxo-1,3-benzoxazol-5-yl)phenyl]ethyl]-2-(pyridin-3-yl)propanamide]
≥ 15	Cn1c(=O)oc2ccc(-c3ccc(C[C@@H](C#N)NC(=O)C(N)Cc4cncc(O)c4)cc3)cc21 (stereo partly drawn) [Compound 217, 2-amino-N-[(1S)-1-cyano-2-[4-(3-methyl-2-oxo-1,3-benzoxazol-5-yl)phenyl]ethyl]-3-(5-hydroxypyridin-3-yl)propanamide]
≥ 15	Cn1c(=O)oc2ccc(-c3ccc(C[C@@H](C#N)NC(=O)C[C@@H](N)Cc4cccc(O)c4)cc3)cc21 [Compound 225, (3S)-3-amino-N-[(1S)-1-cyano-2-[4-(3-methyl-2-oxo-1,3-benzoxazol-5-yl)phenyl]ethyl]-4-(3-hydroxyphenyl)butanamide]
≥ 15	Cn1c(=O)oc2ccc(-c3ccc(C[C@@H](C#N)NC(=O)C[C@H](N)c4ccccc4O)cc3)cc21 [Compound 227A, (3S)-3-amino-N-[(1S)-1-cyano-2-[4-(3-methyl-2-oxo-1,3-benzoxazol-5-yl)phenyl]ethyl]-3-(2-hydroxyphenyl)propenamide]
≥ 15	Cn1c(=O)oc2ccc(-c3ccc(C[C@@H](C#N)NC(=O)C[C@@H](N)c4ccccc4O)cc3)cc21 [Compound 227B, (3R)-3-amino-N-[(1S)-1-cyano-2-[4-(3-methyl-2-oxo-1,3-benzoxazol-5-yl)phenyl]ethyl]-3-(2-hydroxyphenyl)propanamide]
≥ 15	Cn1c(=O)oc2ccc(-c3ccc(C[C@@H](C#N)NC(=O)CC(N)c4cocn4)cc3)cc21 (stereo partly drawn) [Compound 229, 3-amino-N-[(1S)-1-cyano-2-[4-(3-methyl-2-oxo-1,3-benzoxazol-5-yl)phenyl]ethyl]-3-(1,3-oxazol-4-yl)propanamide]
